Results taken from patent publication US7923561B2 (Hoffmann-La Roche Inc., priority 2006, dated 2011).

Experiments:
[1] = biological target: T1, recombinant human 5-HT5A receptor (Homo sapiens, UniProt P47898); experiment: [3H]LSD radioligand binding assay, membranes of HEK-EBNA cells transiently expressing 5-HT5A receptors; details: [3H]LSD approx. 1 nM, SPA beads, 120 min at room temperature; Ki from IC50 by Cheng-Prussoff equation
T1 construct: expressed in transfected cells; host or cells: HEK-EBNA (Human Embryonic Kidney-EBNA) cells, transient cDNA expression, membranes
Experimental: A [^3H]LSD radioligand binding assay was used to determine the affinity of the compounds for the recombinant human 5-HT5A receptor, in membranes from transiently (cDNA) expressed 5-HT5A receptors in Human Embryonic Kidney-EBNA (HEK-EBNA) cells. Assay buffer consisted of Tris (50 mM) buffer containing 1 mM EGTA, 10 mM MgCl2 (pH 7.4) and 10 μM pargyline. The binding assay was carried out in 96-well-plates in the presence of [^3H]LSD (approximately 1 nM), approximately 2 μg/well of membrane protein, and 0.5 mg of Ysi-poly-1-lysine SPA beads in a final volume of 200 μl of buffer. Non-specific binding was defined using methiothepin 2 μM. Compounds were tested at 10 concentrations. All assays were conducted in duplicate and repeated at least two times. Assay plates were incubated for 120 min at room temperature before centrifugation. Bound ligand was determined using a Packard Topcount scintillation counter. IC50 values were calculated using a non-linear curve fitting program and Ki values calculated using the Cheng-Prussoff equation.

T1 sequence (P47898 whole entry): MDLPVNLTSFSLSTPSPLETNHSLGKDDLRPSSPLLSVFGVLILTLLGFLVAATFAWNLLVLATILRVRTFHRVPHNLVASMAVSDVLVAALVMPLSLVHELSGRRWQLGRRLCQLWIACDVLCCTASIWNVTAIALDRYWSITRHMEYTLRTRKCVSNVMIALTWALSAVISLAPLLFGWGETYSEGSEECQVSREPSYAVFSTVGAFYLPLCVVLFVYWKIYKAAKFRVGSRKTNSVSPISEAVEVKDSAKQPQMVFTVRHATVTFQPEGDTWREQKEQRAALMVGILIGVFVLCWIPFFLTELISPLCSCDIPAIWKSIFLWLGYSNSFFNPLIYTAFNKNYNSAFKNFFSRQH

SMILES	melting point	Ki [1]
Cc1nc(-c2cccc3nc(N[C@@H]4CCc5ccccc54)ccc23)no1 [Example 79, (R)-Indan-1-yl-[5-(5-methyl-[1,2,4]oxadiazol-3-yl)-quinolin-2-yl]-amine]	105 °C	134 nM
ON=C(c1ccc(F)cc1)c1cccc2nc(N[C@@H]3CCc4ccccc43)ccc12 [Example 89, (4-Fluoro-phenyl)-[2-((R)-indan-1-ylamino)-quinolin-5-yl]-methanone oxime]	184 °C	2.3 nM
ON=C(c1ccccc1)c1cccc2nc(N[C@@H]3CCc4ccccc43)ccc12 [Example 91, [2-((R)-Indan-1-ylamino)-quinolin-5-yl]-phenyl-methanone oxime]	175.5 °C	1.55 nM
ON=C(c1cccs1)c1cccc2nc(N[C@@H]3CCc4ccccc43)ccc12 [Example 104, [2-((R)-Indan-1-ylamino)-quinolin-5-yl]-thiophen-2-yl-methanone oxime]	194 °C	3.64 nM
ON=C(c1ccc(Cl)cc1)c1cccc2nc(N[C@@H]3CCc4ccccc43)ccc12 [Example 92, (4-Chloro-phenyl)-[2-((R)-indan-1-ylamino)-quinolin-5-yl]-methanone oxime]	194 °C	5.48 nM
ON=C(c1ccc(CN2CCOCC2)cc1)c1cccc2nc(N[C@@H]3CCc4ccccc43)ccc12 [Example 105, [2-((R)-Indan-1-ylamino)-quinolin-5-yl]-(4-morpholin-4-ylmethyl-phenyl)-methanone oxime]	167 °C	23.2 nM
ON=C(c1cccc(F)c1)c1cccc2nc(N[C@@H]3CCc4ccccc43)ccc12 [Example 96, (3-Fluoro-phenyl)-[2-((R)-indan-1-ylamino)-quinolin-5-yl]-methanone oxime]	179.5 °C	1.22 nM
ON=C(c1cc(F)cc(F)c1)c1cccc2nc(N[C@@H]3CCc4ccccc43)ccc12 [Example 101, (3,5-Difluoro-phenyl)-[2-((R)-indan-1-ylamino)-quinolin-5-yl]-methanone oxime]	120.5 °C	7.7 nM
O=C(NCc1cccc2nc(N[C@@H]3CCc4ccccc43)ccc12)c1ccc(F)cc1 [Example 80, 4-Fluoro-N-[2-((R)-indan-1-ylamino)-quinolin-5-ylmethyl]-benzamide]	145 °C	34.4 nM
O=C(c1ccc(CN2CCOCC2)cc1)c1cccc2nc(N[C@@H]3CCc4ccccc43)ccc12 [Example 103, [2-((R)-Indan-1-ylamino)-quinolin-5-yl]-(4-morpholin-4-ylmethyl-phenyl)-methanone]	160 °C	678 nM
O=C(c1cccs1)c1cccc2nc(N[C@@H]3CCc4ccccc43)ccc12 [Example 102, [2-((R)-Indan-1-ylamino)-quinolin-5-yl]-thiophen-2-yl-methanone]	176 °C	33.4 nM
COc1cccc2c1C(Nc1ccc3c(NCc4cnc[nH]4)cccc3n1)CCC2 (racemic) [Example 67, Rac-N5-(3H-Imidazol-4-ylmethyl)-N2-(8-methoxy-1,2,3,4-tetrahydro-naphthalen-1-yl)-quinoline-2,5-diamine]	–	10.5 nM
